According to US7803930B2, “Antisense modulation of apolipoprotein B-expression” (Isis Pharmaceuticals, Inc., priority 2002, dated 2010):
In the oligonucleotide strings, read from the 5' end, every base follows the letter of its sugar. An asterisk marks phosphorothioate; unmarked linkages are phosphodiester. Other units and linkages are bracketed, terminal groups are in braces. A string of capitals states the bases alone. e = 2'-O-(2-methoxyethyl) (MOE); [5mC] = 5-methylcytosine; d = 2'-deoxy (DNA)

Test system: human apolipoprotein B mRNA
Test: Inhibition of human apolipoprotein B mRNA levels in HepG2 cells, quantitative real-time PCR
Type: cell-based
Conditions: HepG2 cells; human apolipoprotein B mRNA; oligonucleotides targeting genomic sequence SEQ ID NO 334; averages from two experiments
Method in brief: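 Apolipoprotein B transcript was quantified by one-step TaqMan RT-PCR, normalized to GAPDH or RiboGreen RNA, and expressed as percent inhibition against an untreated-sample standard curve. HepG2 cells were harvested 16-24 h after oligonucleotide exposure, which was delivered with 3.75 μg/mL Lipofectin over 4-7 h at 80% confluency.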

Substance	% INHIB
301117 (antisense eT*eA*eG*eA*e[5mC]*dA*dA*dT*dT*dG*dA*dG*dA*d[5mC]*dT*e[5mC]*eA*eG*eA*eA) [compound 301117]	39%
301118 (antisense eA*eT*eG*eT*eG*d[5mC]*dA*d[5mC]*dA*d[5mC]*dA*dA*dG*dG*dA*e[5mC]*eA*eT*eA*eG) [compound 301118]	33%
301119 (antisense eA*e[5mC]*eA*eT*eA*d[5mC]*dA*dA*dA*dT*dG*dG*d[5mC]*dA*dA*eT*eA*eG*eG*e[5mC]) [compound 301119]	33%
301120 (antisense eT*eA*eG*eG*e[5mC]*dA*dA*dA*dG*dG*dA*d[5mC]*dA*dT*dG*eA*eA*eT*eA*eG) [compound 301120]	30%
301121 (antisense eT*eT*eA*eT*eG*dA*dT*dA*dG*d[5mC]*dT*dA*d[5mC]*dA*dG*eA*eA*eT*eA*eA) [compound 301121]	29%
301122 (e[5mC]*eT*eG*eA*eG*dA*dT*dT*dA*d[5mC]*d[5mC]*d[5mC]*dG*d[5mC]*dA*eG*eA*eA*eT*e[5mC]; antisense) [compound 301122]	32%
301123 (eG*eA*eT*eG*eT*dA*dT*dG*dT*d[5mC]*dA*dT*dA*dT*dA*eA*eA*eA*eG*eA; antisense) [compound 301123]	26%
301124 (eT*eT*eT*e[5mC]*e[5mC]*dA*dA*dT*dG*dA*d[5mC]*d[5mC]*dT*dG*d[5mC]*eA*eT*eT*eG*eA; antisense) [compound 301124]	48%
301125 (eA*eG*eG*eG*eA*dT*dG*dG*dT*d[5mC]*dA*dA*dT*d[5mC]*dT*eG*eG*eT*eA*eG; antisense) [compound 301125]	57%
301126 (eG*eG*e[5mC]*eT*eA*dA*dT*dA*dA*dA*dT*dA*dG*dG*dG*eT*eA*eG*eT*eT; antisense) [compound 301126]	22%
301127 (eT*e[5mC]*e[5mC]*eT*eA*dG*dA*dG*d[5mC]*dA*d[5mC]*dT*dA*dT*d[5mC]*eA*eA*eG*eT*eA; antisense) [compound 301127]	41%
301128 (e[5mC]*e[5mC]*eT*e[5mC]*e[5mC]*dT*dG*dG*dT*d[5mC]*d[5mC]*dT*dG*d[5mC]*dA*eG*eT*e[5mC]*eA*eA; antisense) [compound 301128]	56%
301129 (e[5mC]*eA*eT*eT*eT*dG*d[5mC]*dA*d[5mC]*dA*dA*dG*dT*dG*dT*eT*eT*eG*eT*eT; antisense) [compound 301129]	35%
301130 (e[5mC]*eT*eG*eA*e[5mC]*dA*d[5mC]*dA*d[5mC]*d[5mC]*dA*dT*dG*dT*dT*eA*eT*eT*eA*eT; antisense) [compound 301130]	10%
301131 (e[5mC]*eT*eT*eT*eT*dT*d[5mC]*dA*dG*dA*d[5mC]*dT*dA*dG*dA*eT*eA*eA*eG*eA; antisense) [compound 301131]	0%
301132 (eT*e[5mC]*eA*e[5mC]*eA*d[5mC]*dT*dT*dA*d[5mC]*d[5mC]*dT*d[5mC]*dG*dA*eT*eG*eA*eG*eG; antisense) [compound 301132]	29%
301133 (eA*eA*eG*eA*eA*dA*dA*dT*dG*dG*d[5mC]*dA*dT*d[5mC]*dA*eG*eG*eT*eT*eT; antisense) [compound 301133]	13%
301134 (e[5mC]*e[5mC]*eA*eA*eG*d[5mC]*d[5mC]*dA*dA*dT*d[5mC]*dT*dG*dA*dG*eA*eA*eA*eG*eA; antisense) [compound 301134]	25%
301135 (eA*eA*eA*eT*eA*d[5mC]*dA*d[5mC]*dA*d[5mC]*d[5mC]*dT*dG*d[5mC]*dT*e[5mC]*eA*eT*eG*eT; antisense) [compound 301135]	20%
301136 (e[5mC]*eT*eT*e[5mC]*eA*d[5mC]*dA*dA*dA*dT*dA*d[5mC]*dA*d[5mC]*dA*e[5mC]*e[5mC]*eT*eG*e[5mC]; antisense) [compound 301136]	20%
